{"source": "patent US20080139554A1", "about": "“SPIRO-PIPERIDINE DERIVATIVES” (priority 2006, published 2008)", "data": [{"target": "T1, human V1a receptor (Homo sapiens, UniProt P37288)", "T1 construct": "expressed in transfected cells; host or cells: HEK293 cells, transiently transfected; cell membranes", "T1 sequence (P37288 whole entry)": "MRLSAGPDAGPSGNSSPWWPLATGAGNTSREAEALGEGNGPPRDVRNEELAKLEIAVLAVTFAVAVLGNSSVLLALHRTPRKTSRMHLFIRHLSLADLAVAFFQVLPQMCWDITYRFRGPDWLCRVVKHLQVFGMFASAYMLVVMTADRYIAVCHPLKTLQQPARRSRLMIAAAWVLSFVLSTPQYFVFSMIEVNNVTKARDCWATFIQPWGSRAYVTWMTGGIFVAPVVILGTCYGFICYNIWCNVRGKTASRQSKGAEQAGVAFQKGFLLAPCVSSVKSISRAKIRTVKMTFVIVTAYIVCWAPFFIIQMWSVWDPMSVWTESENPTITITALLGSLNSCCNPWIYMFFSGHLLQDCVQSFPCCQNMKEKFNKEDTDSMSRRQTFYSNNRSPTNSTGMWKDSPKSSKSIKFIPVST", "test": "human V1a receptor binding (3H-Vasopressin SPA)", "settings": "displacement of 3H-Vasopressin; membranes of HEK293 cells transiently transfected with human V1a receptor; Ki by Cheng-Prussoff equation", "procedure": "The human V1a receptor was cloned by RT-PCR from total human liver RNA. The coding sequence was subcloned in an expression vector after sequencing to confirm the identity of the amplified sequence. […] Cell membranes were prepared from HEK293 cells transiently transfected with the expression vector and grown in 20 liter fermenters with the following protocol.\n50 g of cells were resuspended in 30 ml freshly prepared ice cold Lysis buffer (50 mM HEPES, 1 mM EDTA, 10 mM MgCl2 adjusted to pH=7.4+complete cocktail of protease inhibitor (Roche Diagnostics)). The mixture was homogenized with Polytron for 1 min and sonicated on ice for 2×2 minutes at 80% intensity (Vibracell sonicator). The preparation was centrifuged 20 min at 500 g at 4° C., the pellet was discarded and the supernatant centrifuged 1 hour at 43'000 g at 4° C. (19'000 rpm). The pellet was resuspended in 12.5 ml Lysis buffer+12.5 ml Sucrose 20% and homogenized using a Polytron for 1-2 min. The protein concentration was determined by the Bradford method and aliquots were stored at −80° C. until use. For binding studies 60 mg Yttrium silicate SPA beads (Amersham) were mixed with an aliquot of membrane in binding buffer (50 mM Tris, 120 mM NaCl, 5 mM KCl, 2 mM CaCl2, 10 mM MgCl2) for 15 minutes with mixing. 50 ul of bead/membrane mixture was then added to each well of a 96 well plate, followed by 50 ul of 4 nM 3H-Vasopressin (American Radiolabeled Chemicals). For total binding measurement, 100 ul of binding buffer were added to the respective wells; for non-specific binding, 100 ul of 8.4 mM cold vasopressin were added; and for compound testing, 100 ul of a serial dilution of each compound in 2% DMSO was added. The plate was incubated 1 h at room temperature, centrifuged 1 min at 1000 g and counted on a Packard Top-Count. Non-specific binding counts were subtracted from each well and data was normalized to the maximum specific binding set at 100%. To calculate an IC 50 the curve was fitted using a non-linear regression model (XLfit) and the Ki was calculated using the Cheng-Prussoff equation.", "units": {"Ki": "nM"}, "values": [{"smiles": "Cc1ccc2c(C)c(C(=O)N3CCC4(CC3)COc3ccccc34)[nH]c2c1C", "note": "[Example 24, 1′-[(3,6,7-trimethyl-1H-indol-2-yl)carbonyl]spiro[1-benzofuran-3,4′-piperidine]]", "Ki": 9.77}, {"smiles": "CN(C)C(=O)Cn1c(C(=O)N2CCC3(CC2)OC(=O)c2ccccc23)cc2cc(Cl)ccc21", "note": "[Example 4, 2-{5-chloro-2-[(3-oxo-1′H,3H-spiro[2-benzofuran-1,4′-piperidin]-1′-yl)carbonyl]-1H-indol-1-yl}-N,N-dimethylacetamide]", "Ki": 17.4}, {"smiles": "O=C(c1cc2cc(F)ccc2[nH]1)N1CCC2(CC1)OCc1ccccc12", "note": "[Example 6, 1′-[(5-fluoro-1H-indol-2-yl)carbonyl]-3H-spiro[2-benzofuran-1,4′-piperidine]]", "Ki": 17.8}, {"smiles": "N#CCn1c(C(=O)N2CCC3(CC2)C(=O)Nc2ccc(Br)cc23)cc2cc(Cl)ccc21", "note": "[Example 46, {2-[(5-Bromo-2-oxo-1,2-dihydro-1′H-spiro[indole-3,4′-piperidin]-1′-yl)carbonyl]-5-chloro-1H-indol-1-yl}acetonitrile]", "Ki": 21.4}, {"smiles": "O=C(c1cc2cc(Cl)ccc2[nH]1)N1CCC2(CC1)OCc1ccccc12", "note": "[Example 9, 1′-[(5-chloro-1H-indol-2-yl)carbonyl]-3H-spiro[2-benzofuran-1,4′-piperidine]]", "Ki": 5.5}, {"smiles": "CN(C)CCNC(=O)Cc1cc(Cl)cc2cc(C(=O)N3CCC4(CC3)OCc3ccccc34)[nH]c12", "note": "[Example 13, 2-[5-chloro-2-(1′H,3H-spiro[2-benzofuran-1,4′-piperidin]-1′-ylcarbonyl)-1H-indol-7-yl]-N-[2-(dimethylamino)ethyl]acetamide]", "Ki": 7.76}, {"smiles": "CN1CCN(Cc2cc(Cl)cc3cc(C(=O)N4CCC5(CC4)OCc4ccccc45)[nH]c23)CC1", "note": "[Example 12, 1′-({5-chloro-7-[(4-methylpiperazin-1-yl)methyl]-1H-indol-2-yl}carbonyl)-3H-spiro[2-benzofuran-1,4′-piperidine]]", "Ki": 21.4}, {"smiles": "O=C1OC2(CCN(C(=O)c3cc4cc(Cl)ccc4[nH]3)CC2)c2ccc(F)cc21", "note": "[Example 1, 1′-[(5-chloro-1H-indol-2-yl)carbonyl]-5-fluoro-3H-spiro[2-benzofuran-1,4′-piperidin]-3-one]", "Ki": 41.7}, {"smiles": "O=C1OC2(CCN(C(=O)c3cc4cc(Cl)ccc4[nH]3)CC2)c2ccccc21", "note": "[Example 2, 1′-[(5-chloro-1H-indol-2-yl)carbonyl]-3H-spiro[2-benzofuran-1,4′-piperidin]-3-one]", "Ki": 32.4}, {"smiles": "O=C(c1cc2cc(Cl)cc(CN3CCOCC3)c2[nH]1)N1CCC2(CC1)OCc1ccccc12", "note": "[Example 11, 1′-{[5-chloro-7-(morpholin-4-ylmethyl)-1H-indol-2-yl]carbonyl}-3H-spiro[2-benzofuran-1,4′-piperidine]]", "Ki": 3.8}, {"smiles": "CN1CCN(C(=O)Cc2cc(Cl)cc3cc(C(=O)N4CCC5(CC4)OCc4ccccc45)[nH]c23)CC1", "note": "[Example 14, 1′-({5-chloro-7-[2-(4-methylpiperazin-1-yl)-2-oxoethyl]-1H-indol-2-yl}carbonyl)-3H-spiro[2-benzofuran-1,4′-piperidine]]", "Ki": 2.75}, {"smiles": "Cc1c(C(=O)N2CCC3(CC2)COc2ccccc23)[nH]c2c(C)cccc12", "note": "[Example 26, 1′-[(3,7-dimethyl-1H-indol-2-yl)carbonyl]spiro[1-benzofuran-3,4′-piperidine]]", "Ki": 7.24}, {"smiles": "N#CCc1cc(Cl)cc2cc(C(=O)N3CCC4(CC3)OC(=O)c3ccccc34)[nH]c12", "note": "[Example 5, {5-chloro-2-[(3-oxo-1′H,3H-spiro[2-benzofuran-1,4′-piperidin]-1′-yl)carbonyl]-1H-indol-7-yl}acetonitrile]", "Ki": 6.61}, {"smiles": "N#CCc1cc(Cl)cc2cc(C(=O)N3CCC4(CC3)OCc3ccccc34)[nH]c12", "note": "[Example 10, [5-chloro-2-(1′H,3H-spiro[2-benzofuran-1,4′-piperidin]-1′-ylcarbonyl)-1H-indol-7-yl]acetonitrile]", "Ki": 2.09}, {"smiles": "COc1c(C(=O)N2CCC3(CC2)OCc2ccccc23)[nH]c2cccc(Br)c12", "note": "[Example 8, 1′-[(4-bromo-3-methoxy-1H-indol-2-yl)carbonyl]-3H-spiro[2-benzofuran-1,4′-piperidine]]", "Ki": 30.2}, {"smiles": "CN(C)Cc1cc(Cl)cc2cc(C(=O)N3CCC4(CC3)OCc3ccccc34)[nH]c12", "note": "[Example 15, 1-[5-chloro-2-(1′H,3H-spiro[2-benzofuran-1,4′-piperidin]-1′-ylcarbonyl)-1H-indol-7-yl]-N,N-dimethylmethanamine]", "Ki": 3.63}]}]}
